How the values were obtained:
hrMAO-A = biological target: T1, hrMAO-A (Homo sapiens, UniProt P21397); assay: Metabolic stability in the presence of hrMAO-A; format: in vitro ADME; settings: MAO-A; values in square brackets are within 10% difference (assay's accuracy), no deuteration effect
T1 construct: purchased XenoTech Lot #8213001
T1 sequence (P21397 1-527): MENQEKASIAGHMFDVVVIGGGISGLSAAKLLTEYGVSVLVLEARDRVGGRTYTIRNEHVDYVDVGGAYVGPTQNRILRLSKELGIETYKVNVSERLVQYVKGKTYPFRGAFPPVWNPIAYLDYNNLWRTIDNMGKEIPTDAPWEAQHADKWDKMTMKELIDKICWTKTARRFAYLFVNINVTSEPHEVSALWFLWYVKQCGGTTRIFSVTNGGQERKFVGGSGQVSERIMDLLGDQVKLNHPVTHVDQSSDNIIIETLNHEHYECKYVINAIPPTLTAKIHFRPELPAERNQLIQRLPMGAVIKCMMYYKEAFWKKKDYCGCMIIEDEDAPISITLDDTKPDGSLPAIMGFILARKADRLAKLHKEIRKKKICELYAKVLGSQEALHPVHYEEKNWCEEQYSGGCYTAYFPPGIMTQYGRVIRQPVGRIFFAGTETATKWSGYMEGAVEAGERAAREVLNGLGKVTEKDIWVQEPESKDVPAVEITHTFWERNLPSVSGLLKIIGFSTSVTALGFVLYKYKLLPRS
Experimental: The reaction mixture was prepared as described below. The co-dosed TAs were added into the reaction mixture at a final concentration of 1 microM each. The positive control, kynuramine (25 microM), was run simultaneously with the TAs in a separate reaction. The reaction mixture (without TAs or kynuramine) was equilibrated in a shaking water bath at 37° C. for 5 minutes. The reaction was initiated by the addition of the TAs or kynuramine, and the mixture was incubated in a shaking water bath at 37° C. Aliquots (100 microL) of the TA reaction mixture were withdrawn at 0, 5, 10, 20, 30, 60, and 120 minutes. Aliquots (100 microL) of the positive control reaction mixture were withdrawn at 0 and 30 minutes. TA and kynuramine samples were immediately combined with 100 microL of ice-cold 100% MeCN containing 0.1% formic acid and IS to terminate the reaction. The samples were then mixed and centrifuged to precipitate proteins. All TA samples were assayed by LC-HRAMS. The PARR (analyte to IS) at each time point was compared to the PARR at time 0 to determine the percent remaining at each time point. Reaction composition: hrMAO 0.02 mg/mL; Potassium Phosphate, pH 7.4 100 mM; Magnesium Chloride 5 mM; Test Articles (each) 1 microM.

[1] = PK study in rats, cassette dosing of deuterated and non-deuterated analog; format: in vivo; settings: rat; 5 mg/kg; oral gavage or via catheter; % change vs. non-deuterated material
Experimental: (§1) The key PK parameters (presented as a % change vs. non-deuterated materials) are presented in Table 3 to include half-life (T1/2), area under the curve (AUC), bioavailability (F) and blood-to-plasma ration (BPR). Pharmacokinetics of the deuterated tryptamines was studied in rats. In a typical experiment, run as a cassette dosing, two groups of 5 Wistar female rats (200-250 g) with surgically inserted jugular vein catheter (Charles River, Andover, MA) were fasted for 12 h and then administered 5 mg/kg of the deuterated and 5 mg/kg of the related non-deuterated analog, by oral gavage or via a catheter for each group. At time points 0, 15, 30, 60 min, and 2, 4, 8, and 24 h, the resulting plasma was analyzed for the parent molecule using LC/MS spectroscopy. Two separate groups of 5 animals were used for determining blood-to-plasma ratio (BPR). Each group was sacrificed at time points 15 and 30 min, respectively, and the concentration of the parent drug was determined in the brain and plasma by LC/MS spectroscopy.

[2] = BPR: parent drug in brain and plasma of rats; format: in vivo; settings: rat, % change vs. non-deuterated material
Experimental: as §1

rat liver microsomes = assay: Metabolic stability in rat liver microsomes (RLM)
[3] = oral, cited from earlier work

[2H]C([2H])(Cc1c[nH]c2ccc(OC)cc12)N(C)C [5-MeO-DMT-α,α-d2]
MAO, % (half-life as % vs. the related nondeuterated compound) (hrMAO-A): 227%
Deuterium Kinetic Isotope Effect (% change), AUC [1]: 60%
Deuterium Kinetic Isotope Effect (% change), T1/2 [1]: 30%
Deuterium Kinetic Isotope Effect (% change), BPR, 15 min [2]: 120%
Deuterium Kinetic Isotope Effect (% change), BPR, 30 min [2]: 180%
RLM, % (half-life as % vs. the related nondeuterated compound) (rat liver microsomes; RLM, values in square brackets are within 10% difference (assay's accuracy), no deuteration effect): 185%
collective kinetic deuterium isotope effect (reaction rate decrease for deuterated vs. non-deuterated molecule) (rat liver microsomes; rat liver microsomes, 0 to 60 min, disappearance of parent peak): 150-200%

[2H]C([2H])(Cc1c[nH]c2cccc(O)c12)N(C)C [PI-α,α-d2]
Deuterium Kinetic Isotope Effect (% change), AUC [1]: 75%
Deuterium Kinetic Isotope Effect (% change), T1/2 [1]: 50%
Deuterium Kinetic Isotope Effect (% change), BPR, 15 min [2]: 100%
Deuterium Kinetic Isotope Effect (% change), BPR, 30 min [2]: 150%

COc1cc(CCNCc2ccccc2OC)c(OC)cc1Cl [2C—C—NBOMe, 2-(4-Chloro-2,5-dimethoxyphenyl)-N-[(2-methoxyphenyl)methyl]ethan-1-amine]
very strong psychedelic doses [3]: 500 to 700 µg
orally active dose ([3]; doses as low as): ≥ 25 µg

From patent US12240813B2, “Deuterated tryptamine derivatives and methods of use” (priority 2020, dated 2025)
